Laboratory results taken from the CheMixHub viscosity set.

Assay: xn = mol fraction of the nth substance listed

CCN(CC)c1ccccc1 + CCC(=O)O
Conditions	viscosity [mPa·s]
323.15 K, 101 kPa, x2 = 0.5177	1.865

CCCN(CCC)CCC + CCC(=O)O
viscosity [mPa·s], 101 kPa
Conditions	x2 = 0.1	x2 = 0.4	x2 = 0.5	x2 = 0.6	x2 = 0.7	x2 = 0.75	x2 = 0.775	x2 = 0.8	x2 = 0.9
293.15 K	0.734	4.43	5.62	5.97	13.95	20.55	23.47	23.75	8.57
298.15 K	0.664	3.85	5.12	5.22	11.2	16.25	18.67	18.96	7.5
303.15 K	0.589	3.5	4.35	4.5	9.2	13.02	15	15.59	6.47
308.15 K	0.54	3.1	3.75	3.8	7.7	10.85	12.22	12.77	5.81
313.15 K	0.51	2.8	3.62	3.35	6.52	9	10.32	10.76	5.04
318.15 K	0.499	2.45	3.03	3	5.57	7.62	8.68	8.96	4.4
323.15 K	0.464	2.22	2.75	2.67	4.82	6.46	7.44	7.72	4.05

Cc1ccc(C(C)C)c(O)c1 + CC(C)[C@@H]1CC[C@@H](C)C[C@H]1O
Conditions	viscosity [mPa·s]
293.15 K, 100 kPa, x1 = 0.333	68.78
293.15 K, 100 kPa, x1 = 0.5	54.01
298 K, 101 kPa, x2 = 0.2	25.3
298 K, 101 kPa, x2 = 0.25	26.8
298 K, 101 kPa, x2 = 0.333	32
298.15 K, 100 kPa, x1 = 0.333	43.86
298.15 K, 100 kPa, x1 = 0.5	35.41
303.15 K, 100 kPa, x1 = 0.333	29.46
303.15 K, 100 kPa, x1 = 0.5	24.33
308.15 K, 100 kPa, x1 = 0.333	20.66
308.15 K, 100 kPa, x1 = 0.5	17.41
313.15 K, 100 kPa, x1 = 0.333	15.01
313.15 K, 100 kPa, x1 = 0.5	12.89
318.15 K, 100 kPa, x1 = 0.333	11.25
318.15 K, 100 kPa, x1 = 0.5	9.84
323.15 K, 100 kPa, x1 = 0.333	8.69
323.15 K, 100 kPa, x1 = 0.5	7.72
